# Like-named read-outs stand apart in the source and are kept apart here.
# Assays:
# OTC [1] = assay: OTC expression modulated by compounds, OTC/GeoMean of housekeeping genes, DMSO = 1 (Table 3A); format: cell-based, human; conditions: 10 uM final concentration
# urea cycle genes = assay: RNA-seq of primary human hepatocytes, compounds that modulate multiple urea cycle-related genes; format: cell-based; conditions: primary human hepatocytes, RNA-seq
# Procedure: To identify small molecules that modulate urea cycle enzymes, primary human hepatocytes were prepared as a monoculture, and at least one small molecule compound was applied to the cells.
# RNA-seq was performed to determine the effects of the compounds on the expression of urea cycle enzymes in hepatocytes. Fold change was calculated by dividing the level of expression in the cell system that had been perturbed by the level of expression in an unperturbed system. Changes in expression having a p-value ≤0.05 were considered significant.
# Significance was defined as an FPKM ≥1, a log 2 (fold change) ≥0.5, and a q-value of ≤0.05 for selected gene target.
# ASS1 = assay: RNA-seq of compound-treated primary human hepatocytes, ASS1 expression; format: cell-based; conditions: primary human hepatocytes; for Relative ASS1 level vs Untreated (±Standard Deviation): triplicate (Table 15, FIG. 7)
# OTC [2] = assay: RNA-seq of compound-treated primary human hepatocytes, OTC expression; format: cell-based; conditions: primary human hepatocytes, RNA-seq
# NAGS = format: cell-based, human
# SLC25A15 = assay: RNA-seq of compound-treated primary human hepatocytes, SLC25A15 expression; format: cell-based; conditions: primary human hepatocytes, triplicate (Table 24, FIG. 16A-B)
# OTC [3] = assay: HSP90 or HSP70 inhibitors in primary human hepatocytes, OTC mRNA; format: cell-based; conditions: hepatocytes from Donor B, normalized to B2M
# Procedure: (§1) Additional small molecules that inhibit HSP90 or HSP70 were tested in primary human hepatocytes as described in Example 2. HSP90 or HSP70 inhibitors were tested in triplicate at 0.3 μM and 3 μM. The results are shown as the fold change (mRNA FC) in the mRNA levels of OTC and CPS1 genes after treatment compared to an untreated control (DMSO) and the standard deviation (SD). In addition, a dose titration experiment was performed with selected HSP90 inhibitors. Hepatocytes were incubated with increasing concentrations of HSP90 inhibitors and the changes in OTC and CPS1 expression quantified as previously described.
# (§2) HSP90 and HSP70 inhibitors were compared to confirm the role of HSP90 in modulating OTC and CPS1 expression. Hepatocytes from Donor B were incubated with various HSP90 inhibitors or an HSP70 inhibitor, Pifithrin-μ, and then harvested for mRNA quantification. OTC and CPS1 mRNA levels were normalized to B2M.
# SLC25A13 = assay: RNA-seq of compound-treated primary human hepatocytes, SLC25A13 expression; format: cell-based; conditions: primary human hepatocytes, triplicate (Table 23, FIG. 15)
# CPS1 = assay: HSP90 or HSP70 inhibitors in primary human hepatocytes, CPS1 mRNA; format: cell-based; conditions: hepatocytes from Donor B, normalized to B2M
# Procedure: as §1, §2
smiles,measurement,setting,value
"COc1cccc2c1C(=O)c1c(O)c3c(c(O)c1C2=O)C[C@@](O)(/C(CO)=N/NC(=O)CCCCCN1C(=O)C=CC1=O)C[C@@H]3O[C@H]1C[C@H](N)[C@H](O)[C@H](C)O1 [INNO-206 (aldoxorubicin), aldoxorubicin]",Max Value (OTC/GeoMean of HKs; DMSO = 1),OTC [1],2.36
same,number of urea cycle genes whose expression was significantly up-regulated,urea cycle genes,three
same,Up-regulated Genes,urea cycle genes; urea cycle-related genes significantly increased (Table 10),"NAGS, ASS1, OTC"
same,"Fold change (Log 2) vs untreated, ASS1 expression",ASS1; RNA-seq (Table 4),0.58 Log 2
same,"OTC expression, Fold change (Log 2) vs untreated",OTC [2],0.87 Log 2
same,"Fold change (Log 2) vs untreated, NAGS expression","NAGS; primary human hepatocytes, RNA-seq (Table 6)",1.63 Log 2
CSCC[C@H](N)C(=O)N[C@@]1(C(=O)O)CS(=O)(=O)[C@H]2[C@H](C(=O)O)[C@H]21 [pomaglumetad methionil],Max Value (OTC/GeoMean of HKs; DMSO = 1),OTC [1],1.49
CC1(C)CC(=O)c2c(C(F)(F)F)nn(-c3ccc(C(N)=O)c(N[C@H]4CC[C@H](OC(=O)CN)CC4)c3)c2C1 [PF-04929113 (SNX-5422)],Max Value (OTC/GeoMean of HKs; DMSO = 1),OTC [1],1.73
Cl.Cn1c(=O)c(Oc2ccc(F)cc2F)cc2cnc(NC3CCOCC3)nc21 [R1487 Hydrochloride],Max Value (OTC/GeoMean of HKs; DMSO = 1),OTC [1],1.64
same,Relative SLC25A15 level vs Untreated (±Standard Deviation),SLC25A15; 1 μM,1.56 ± 0.16
same,Relative SLC25A15 level vs Untreated (±Standard Deviation),SLC25A15; 10 μM,1.51 ± 0.09
Cc1cc(Nc2cc(CN3CCOCC3)c3nc(C)c(Cc4ccc(Cl)cc4F)n3n2)n[nH]1 [LY2784544],Max Value (OTC/GeoMean of HKs; DMSO = 1),OTC [1],2.78
COc1cc2c(cc1OC)CN(C(=O)/C=C/c1c(-c3ccccc3)n(C)c3ncccc13)CC2 [SIS3],Max Value (OTC/GeoMean of HKs; DMSO = 1),OTC [1],1.46
same,"Fold change (Log 2) vs untreated, NAGS expression",NAGS,0.64 Log 2
CC1(C)CC[C@]2(C(=O)O)CC[C@]3(C)[C@H](C(=O)C=C4[C@@]5(C)C=C(C#N)C(=O)C(C)(C)[C@@H]5CC[C@]43C)[C@@H]2C1 [Bardoxolone],Max Value (OTC/GeoMean of HKs; DMSO = 1),OTC [1],2.76
"C=CCNC1=C2C[C@@H](C)C[C@H](OC)[C@H](O)[C@@H](C)/C=C(\C)[C@H](OC(N)=O)[C@@H](OC)/C=C\C=C(/C)C(=O)NC(=CC1=O)C2=O [17-AAG (Tanespimycin), Tanespimycin]",OTC Expression mRNA FC,OTC [3]; 0.3 uM,5.01
same,OTC Expression mRNA FC,OTC [3]; 3 uM,2.84
same,Relative SLC25A13 level vs Untreated (±Standard Deviation),SLC25A13; 0.3 μM,1.48 ± 0.01
same,Relative SLC25A13 level vs Untreated (±Standard Deviation),SLC25A13; 1 μM,1.40 ± 0.05
same,Relative SLC25A13 level vs Untreated (±Standard Deviation),SLC25A13; 3 μM,1.51 ± 0.09
same,Relative SLC25A13 level vs Untreated (±Standard Deviation),SLC25A13; 10 μM,1.46 ± 0.14
same,Relative ASS1 level vs Untreated (±Standard Deviation),ASS1; 0.3 μM,1.37 ± 0.11
same,Relative ASS1 level vs Untreated (±Standard Deviation),ASS1; 1 μM,1.46 ± 0.07
same,Relative SLC25A15 level vs Untreated (±Standard Deviation),SLC25A15; 0.3 μM,1.48 ± 0.01
same,Relative SLC25A15 level vs Untreated (±Standard Deviation),SLC25A15; 1 μM,1.40 ± 0.05
same,Relative SLC25A15 level vs Untreated (±Standard Deviation),SLC25A15; 3 μM,1.51 ± 0.09
same,Relative SLC25A15 level vs Untreated (±Standard Deviation),SLC25A15; 10 μM,1.46 ± 0.14
same,CPS1 Expression mRNA FC,CPS1; 0.3 uM,1.79
same,CPS1 Expression mRNA FC,CPS1; 3 uM,2.51

# — patent US11266655B2, “Methods and compositions for treating urea cycle disorders” (Camp4 Therapeutics Corporation, priority 2019, dated 2022)
